# Measured values as given in patent publication US20060241178A1, “Compositions and methods for treating lung cancer” (priority 2002, published 2006).
# Where two headings read alike, the source gives them in different places.
# Tests used:
# [1] = test system: AP-1 binding activity in A549 cells; experiment: EMSA of AP-1 binding activity in A549 cells; assay type: cell-based, human
# Experimental: Cell Lines: The human lung adenocarcinoma cell line A549 was obtained from the American Type Culture Collection (ATCC) (Bethesda, Md.). […] Cells were grown at 37° C. with 5% CO2.
# Reagents: The PEITC was obtained from Aldrich (Milwaukee, Wis.) and its N-acetylcysteine conjugate was synthesized in house by the Organic Synthesis Facility using the method described previously (Kassahun et al., Chem Res Toxicol 1997, 10(11):1228-33). Unless specified otherwise, the A549 cells were treated with 10 or 25 μM of PEITC-NAC. TPA (12-O-tetradecanoylphorbol-13-acetate) was purchased from Sigma (St. Louis, Mo.).
# Electrophoretic Mobility Shift Assay (EMSA): Double-stranded oligonucleotides containing the consensus-binding site for AP-1 were purchased commercially (Santa Cruz Biotech). The oligos were labeled with γ-^32P-ATP (6000 Ci/mmol, Armeshem Pharmacia Biotech. Inc Piscataway, N.J.) using polynucleotide kinase (Promega, Madison, Wis.) according to standard procedures. The labeled DNA was incubated with 5 μg of total proteins (as specified in the Results section) for 10 min at room temperature, in the presence of 1 μg of poly d(I)-d(C) oligomer (Roche Molecular Biochemicals, Indianapolis, Ind.) and DNA-binding buffer as described previously (Yang et al., Cell Growth Differ 1993, 4(7):595-602). The complexes were then separated on a 7.5% polyacrylamide gel and autoradiographed.
# Proteins Isolation: Cells were incubated in a 37° C. with 5% CO2, followed by mock or treatments specified in the results section. Total proteins were then isolated using RIPA buffer. The protease inhibitors aprotinin (1 μg/ml), leupeptin (1 μg/ml), pepstatin (1 μg/ml), phenylmethylsulfonyl fluoride (0.1 mM) and the phosphatase inhibitor Na3VO4 (1 mM), NaF (1 mM) were added to all buffers. The protein concentrations were determined using the Coomassie Plus Protein Assay Reagent (Pierce, Rockford, Ill.), and aliquots of the proteins were stored at −80° C.
# [2] = Stability of conjugates in AIN-76A diet (methanol extraction, HPLC); assay type: physicochemical; settings: stored at 4° C. under nitrogen
# Experimental: The ITC conjugates were incorporated (15 μmol/g diet) into AIN-76A diets (5% corn oil) by mixing with dextrose prior to diet preparation. […] After mixing with dextrose, the solvent was removed using a rotary evaporator and further dried using a vacuum pump (2-3 h). Diets were prepared in 1-2 kg batches, and were stored at 4° C. in a container purged with nitrogen. […] Stability was determined by extraction of 0.5 g portions of the diet with 2.5 ml methanol (2×). The methanol extracts were combined and a 1 ml aliquot was filtered using a 0.47 μm syringe filter.
# [3] = test system: NNK/B(a)P-induced lung adenomas and adenocarcinomas; settings: for Adenocarcinoma Incidence (%) / Adenocarcinoma Multiplicity mean ± SD / Adenoma Incidence (%) / Adenoma Multiplicity mean ± SD: preliminary
# Experimental: The test compounds were given in the diet on week 21 after beginning of a weekly dose of a mixture of NNK/B(a)P: 3 μmol each (621 μg NNK and 756 μg B(a)P) in 0.1 ml cottonseed oil for eight weeks (a total of 8 doses) (groups 1 to 10); only vehicle (cottonseed oil) for groups 11 to 15. Animals were then given experimental diet for 20 weeks until week 40. Four mice in groups 1, 2, 4, 6, 8, and 10 (see Table 1) were sacrificed on weeks 20, 38, and 40. The bioassay was terminated on week 52. If sufficient numbers of tumors were developed in mice killed on week 40, the bioassay was terminated at week 40. Tumors (adenomas and carcinomas) were quantified by multiplicity and incidence. At sacrifice, livers and lungs were harvested and the tissues rinsed in autoclaved PBS, stored in labeled foil, and snap frozen in liquid nitrogen. These tissues both tumorous and non-tumorous were processed by histology for biomarker studies (TUNEL, PCNA,p53, […] kinases, etc.). Lungs were examined by histology at termination (52 week or 40 week) for adenomas and carcinomas).
# In this study, the potential protective effects of ITCs and ITC-NACs against progression of lung adenomas to malignant tumors were investigated. Lung tumors were induced in A/J mice with 3 μmol B(a)P plus 3 μmol NNK (gavage once/wk, 8 wks); mice were maintained on AIN-76A semi-purified diets. […] Diets containing PEITC (phenethyl ITC) or SFN (sulforaphane), each at 3 mmol/kg and 1.5 mmol/kg diet; PEITC-NAC or SFN-NAC at 8 mmol/kg and 4 mmol/kg diet; and NAC at 8 mmol/kg diet were then provided to groups of 28 mice (high dose) or 20 mice (low dose) during weeks 20 to 40 after initiation. Four mice in each high dose treatment group were killed during weeks 28 and 40 to monitor tumor incidence and progression; lung tissues were used for molecular studies. Remaining mice were killed at 40 weeks for histopathological examination. […] To assess molecular events occurring during the treatments, lung RNA of mice treated with B(a)P+NNK/control diet and B(a)P+NNK/PEITC-NAC high dose diet was examined using a Mouse Cancer Pathway Finder Gene Array.
# [4] = test system: A549/control-vector cells; experiment: Apoptosis in A549/control-vector transfectants (morphology, DNA fragmentation, annexin V, PARP Western blot); assay type: cell-based, human; settings: 25 μM
# [5] = test system: A549 cells; experiment: Apoptosis in A549 cells treated with TPA, PEITC-NAC or TPA plus PEITC-NAC (photography, DAPI staining); assay type: cell-based, human; settings: TPA 100 nM 12 h prior, then PEITC-NAC 24 h
# Excerpt: Assay for single cell DNA strand breaks: A549 cells treated with or without TPA, PEITC-NAC or TPA plus PEITC-NAC were collected at the times specified in the text, cytocentrifuged and stained with 4′-6′diamidino-2-phenylindole (DAPI). The photographs were taken using an Olympus AX 70 microscope (Melville, N.Y.) with fluorescence and SPOT RT Slider digital image system (Diagnostic Instruments Inc., Sterling Heights, Mich.). Arrows indicated the typical apoptotic features of DNA strand breakage and nuclear fragmentation.
# TPA (100 nM) was added to A549 cells 12 h prior to addition of PEITC-NAC, which was added 24 h before photography of cells, protein isolation, or DAPI staining. […] These cells were treated identically, but were stained with the DNA fluorochrome DAPI.
# [6] = high dose (3 or 8 mmol/kg diet)
# [7] = low dose (1.5 or 4 mmol/kg diet)
smiles,measurement,setting,value
"CC(=O)N[C@@H](CSC(=S)NCCc1ccccc1)C(=O)O [PEITC-NAC, N-acetylcysteine Conjugate of phenethyl isothiocyanate]",earliest appearance of AP-1 activation,[1]; 10 μM,30 min
same,concentration of peak AP-1 binding activity,[1]; 24 h treatment,10 µM
same,lowest concentration stimulating AP-1 activation,[1]; 24 h treatment,1 µM
same,stability in diet,[2],stable for at least one month
same,incidence of adenocarcinoma/squamous carcinoma,"[3]; 8 mmol/kg diet, initiated control group 60%",20%
same,mean numbers of lung adenomas compared with carcinogen control mice,[3]; at termination,decreases were significant
same,Adenocarcinoma Incidence (%),[3]; [6],5/31 (16.1%)
same,Adenocarcinoma Multiplicity mean ± SD,[3]; [6],0.52 ± 1.50
same,Adenoma Incidence (%),[3]; [6],30/31 (96.8%)
same,Adenoma Multiplicity mean ± SD,"[3]; high dose (PEITC, SFN 3 mmol/kg diet; PEITC-NAC, SFN-NAC, NAC 8 mmol/kg diet)",8.19 ± 3.99
same,Adenocarcinoma Incidence (%),[3]; [7],4/19 (21.05%)
same,Adenocarcinoma Multiplicity mean ± SD,[3]; [7],0.53 ± 1.14
same,Adenoma Incidence (%),[3]; [7],17/19 (89.47%)
same,Adenoma Multiplicity mean ± SD,"[3]; low dose (PEITC, SFN 1.5 mmol/kg diet; PEITC-NAC, SFN-NAC 4 mmol/kg diet)",7.58 ± 3.88
same,malignant tumor multiplicity,"[3]; low dose groups, initiated control group 2.1",0.9 tumors/mouse
same,PARP 89 kD cleavage fragment,[4]; 3 h,a very light 89 kD cleavage fragment
same,PARP protein,[4]; 24 h,maintained a significant levels of intact PARP protein
same,"cell survival (morphology, DNA fragmentation)",[4]; 24 h,the majority of control-vector transfectants were still alive
same,incidence of apoptosis in TPA-pretreated cells compared with PEITC-NAC alone,[5],a much higher incidence of apoptosis
